These results are taken from patent US20160272635A1, “SUBSTITUTED DIHYDROPYRIDO[3,4-B]PYRAZINONES AS DUAL INHIBITORS OF BET PROTEINS AND POLO-LIKE KINASES” (BAYER PHARMA AKTIENGESELLSCHAFT, priority 2013, published 2016).

Where two headings read alike, the source gives them in different places.

Test [1] deals with T1, BRD4 bromo domain 1 [BRD4(1)] (Homo sapiens, UniProt O60885).
T1 construct: N-terminally His6-tagged BRD4(1) (amino acids 67-152); made in house; host or cells: E. coli
As to the kind of experiment: BRD4(1)/acetylated peptide H4 binding assay (TR-FRET). To be noted: inhibition of interaction between BRD4(1) and acetylated histone H4 peptide. The text has this:
To assess the BRD4(1) binding strength of the substances described in this application, the ability thereof to inhibit the interaction between BRD4(1) and acetylated histone H4 in a dose-dependent manner was quantified.
For this purpose, a time-resolved fluorescence resonance energy transfer (TR-FRET) assay was used, which measures the binding between N-terminally His6-tagged BRD4(1) (amino acids 67-152) and a synthetic acetylated histone H4 (Ac-H4) peptide with sequence GRGK(Ac)GGK(Ac)GLGK(Ac)GGAK(Ac)RHGSGSK-biotin. The recombinant BRD4(1) protein produced in-house according to Filippakopoulos et al., Cell, 2012, 149:214-231 was expressed in E. coli and purified by means of (Ni-NTA) affinity and (Sephadex G-75) size exclusion chromatography. The Ac-H4 peptide can be purchased, for example, from Biosyntan (Berlin, Germany).
In the assay, typically 11 different concentrations of each substance (0.1 nM, 0.33 nM, 1.1 nM, 3.8 nM, 13 nM, 44 nM, 0.15 μM, 0.51 μM, 1.7 μM, 5.9 μM and 20 μM) were analysed as duplicates on the same microtitre plate. For this purpose, 100-fold concentrated solutions in DMSO were prepared by serial dilutions (1:3.4) of a 2 mM stock solution into a clear, 384-well microtitre plate (Greiner Bio-One, Frickenhausen, Germany). From this, 50 n1 were transferred into a black test plate (Greiner Bio-One, Frickenhausen, Germany). The test was started by the addition of 2 μl of a 2.5-fold concentrated BRD4(1) solution (final concentration typically 10 nM in the 5 μl of reaction volume) in aqueous assay buffer [50 mM HEPES pH 7.5, 50 mM sodium chloride (NaCl), 0.25 mM CHAPS and 0.05% serum albumin (BSA)] to the substances in the test plate. This was followed by a 10-minute incubation step at 22° C. for the pre-equilibration of putative complexes between BRD4(1) and the substances.
The mixture was then incubated in the dark at 22° C. for one hour and then at 4° C. for at least 3 hours and for no longer than overnight. The formation of BRD4(1)/Ac-H4 complexes was determined by the measurement of the resonance energy transfer from the streptavidin-Eu cryptate to the anti-6His-XL665 antibody present in the reaction. For this purpose, the fluorescence emission was measured at 620 nm and 665 nm after excitation at 330-350 nm in a TR-FRET measuring instrument, for example a Rubystar or Pherastar (both from BMG Lab Technologies, Offenburg, Germany) or a Viewlux (Perkin-Elmer). The ratio of the emissions at 665 nm and at 622 nm was taken as an indicator of the amount of BRD4(1)/Ac-H4 complexes formed.
The data (ratios) obtained were normalized, with 0% inhibition corresponding to the mean from the measurements for a set of controls (typically 32 data points) in which all the reagents were present. In these, in place of test substances, 50 nl of DMSO (100%) were used Inhibition of 100% corresponded to the mean from the measurements for a set of controls (typically 32 data points) in which all the reagents except BRD4(1) were present. The IC50 was determined by regression analysis based on a 4-parameter equation (minimum, maximum, IC50, Hill; Y=Max+(Min−Max)/(1+(X/IC50)Hill).
In general terms: In TR-FRET formats the signal depends on donor and acceptor labels being close together.

The target in another test is T2, Plk-1 (Homo sapiens, UniProt P53350).
T2 construct: Recombinant fusion protein consisting of GST and Plk (kinase domain 33-345); MW 36 kDa; GST; made in house; host or cells: insect cells (Hi5)
T2 sequence (P53350 33-345): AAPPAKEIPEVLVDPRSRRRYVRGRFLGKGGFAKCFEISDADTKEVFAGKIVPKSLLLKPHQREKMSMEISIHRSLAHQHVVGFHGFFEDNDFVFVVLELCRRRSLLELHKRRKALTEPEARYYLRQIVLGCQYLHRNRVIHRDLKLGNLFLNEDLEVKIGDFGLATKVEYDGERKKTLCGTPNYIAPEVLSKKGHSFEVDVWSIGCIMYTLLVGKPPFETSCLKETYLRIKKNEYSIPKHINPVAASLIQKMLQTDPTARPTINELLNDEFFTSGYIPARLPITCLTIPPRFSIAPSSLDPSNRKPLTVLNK
As to the kind of experiment: Plk-1 enzyme assay (indirect HTRF kinase assay). The test is classed as biochemical. As for the experimental part:
Recombinant fusion protein consisting of GST and Plk (kinase domain 33-345; MW 36 kDa, conc 0.8 μg/μl) expressed from insect cells (Hi5) and purified by glutathione Sepharose affinity chromatography and subsequent gel filtration (Superdex 75) is used for the kinase assay. Aliquots thereof are frozen in liquid nitrogen and stored at −80° C. and, after thawing, used only once.
The assay used is an indirect HTRF assay which employs the following materials and procedures. The substrate used for the kinase reaction is the biotinylated peptide Btn-Ahx-KKLNRTLSFAEPG-amide x TFA from Biosyntan, Sample No.: 6178.1 (C-terminus in amide form). This is an artificial sequence not derived from any known protein. 50 nl of the test compounds dissolved in 100% dimethyl sulphoxide (DMSO) (final concentrations: 0 μM and concentrations in the range of 0.001-20 μM) are pre-incubated with 2 μl Plk-1 enzyme working solution in working buffer [25 mM MgCl2; 1 mM DTT; 50 mM Hepes pH 7.0; 0.01% NP40; 1× Complete; 0.05% BSA] for 30 min. The kinase reaction is then initiated by addition of 3 μl of substrate solution [adenosine triphosphate (ATP) and 1.4 μM substrate peptide (biotin-Ttds-KKLNRTLSFAEPG-NH2)] in working buffer, and, after 30 min, stopped by addition of a stopper solution (100 mM EDTA, 100 mM Hepes pH 7.5, 800 mM potassium fluoride, 0.12% BSA, 0.4 μM SA-XLent (0.05 μM, from CIS bio international, Marcoule, France), Eu^3+ cryptate-conjugated rabbit anti-mouse IgG (1.5 nM; an anti-mouse IgG antibody labelled with europium cryptate from CIS bio international, Marcoule, France), 1 nM anti-phospho-serine kinase (a phospho-specific antibody from Upstate Biotechnology, Dundee, Scotland), and incubated at 4° C. overnight.
For the test at low ATP concentration, a 1.25 ng/μl Plk-1 working solution and 16.7 μM ATP are used, for the test at high ATP concentration, a 0.039 ng/μl Plk-1 working solution and 16.7 mM ATP are used.
The amount of phosphorylated substrate peptide is then determined by measuring the resonance energy transfer from europium-labelled antibody complex to streptavidine-XLent. To this end, the fluorescence emission at 620 nm and 665 nm is measured following excitation at 350 nm in an HTRF measuring instrument, e.g. Rubystar (BMG Labtechnologies, Offenburg, Germany) or Viewlux (Perkin-Elmer). The ratio of the emissions at 665 nm and at 620 nm is taken as a measure of the amount of phosphorylated substrate peptide. The data are normalized (enzyme reaction without inhibitor=0% inhibition, all other assay components, but no enzyme=100% inhibition), and IC50 values are calculated using a 4 parameter equation (minimum, maximum, IC50, Hill; Y=max+(min−max)/(1+(X/IC50)Hill)).

The test system of the next test is MOLM-13 cell line. The test can be described thus: MOLM-13 cell proliferation assay (alamarBlue). The test is classed as cell-based. To be noted: Homo sapiens; MOLM-13 cells, 96 hours incubation, inhibition of cell proliferation. As for the experimental part:
In accordance with the invention, the substances were tested for their ability to inhibit the proliferation of the MOLM-13 cell linie (Deutsche Sammlung far Mikroorganismen and Zellkulturen [German Collection of Microorganisms and Cell Cultures], ACC 554). Cell viability was determined by means of the alamarBlue® reagent (Invitrogen) in a Victor X3 Multilabel Reader (Perkin Elmer). The excitation wavelength was 530 nm and the emission wavelength […].
The MOLM-13 cells were shown at a density of 4000 cells/well in 100 μl of growth medium on 96-well microtitre plates. After overnight incubation at 37° C., the fluorescence values (CI values) were determined. The plates were then treated with various substance dilutions and incubated at 37° C. for 96 hours. Subsequently, the fluorescence values were determined (CO values). For the data analysis, the CI values were subtracted from the CO values and the results were compared between cells which had been treated with various dilutions of the substance or only with buffer solution. The IC50 values (substance concentration needed for 50% inhibition of cell proliferation) were calculated therefrom.
In general terms: Resazurin is reduced to fluorescent resorufin, in cell work by metabolically active cells.

Where [2] appears, read: 10 mM ATP (high ATP concentration), read-out: IC50 [Plk-1] (10 mM ATP).
The mark [3] stands for this setting: 10 μM ATP (low ATP concentration), read-out: IC50 [Plk-1] (10 μM ATP).

As for `CC[C@@H]1C(=O)N(C)c2cnc(Nc3ncc(C(=O)NC(C)(C)CO)cc3OC)cc2N1C1CCCC1` [Example 11, 6-[[(2R)-1-Cyclopentyl-2-ethyl-1,2,3,4-tetrahydro-4-methyl-3-oxopyrido[3,4-b]pyrazin-7-yl]amino]-N-(2-hydroxy-1,1-dimethylethyl)-5-methoxy-3-pyridinecarboxamide], the figures for the IC50 (in test [1]; at Plk-1 (setting [2]); in the test on MOLM-13 cell line) were 393 nM, 57 nM and 74 nM, respectively.
For `CC[C@@H]1C(=O)N(C)c2cnc(Nc3ncc(C(=O)NCc4cccnc4)cc3OC)cc2N1C1CCCC1` [Example 12, 6-[[(2R)-1-Cyclopentyl-2-ethyl-1,2,3,4-tetrahydro-4-methyl-3-oxopyrido[3,4-b]pyrazin-7-yl]amino]-5-methoxy-N-(3-pyridinylmethyl)-3-pyridinecarboxamide], in that order: 424 nM, 23 nM and 52 nM.
Take `CC[C@@H]1C(=O)N(C)c2cnc(Nc3ncc(C(=O)NC4CC4)cc3C)cc2N1C1CCCC1` [Example 13, 6-{[(2R)-1-Cyclopentyl-2-ethyl-4-methyl-3-oxo-1,2,3,4-tetrahydropyrido[3,4-b]pyrazin-7-yl]amino}-N-cyclopropyl-5-methylpyridine-3-carboxamide]: the IC50 – broadly, the concentration that inhibits the measured activity by half – in test [1] was 434 nM; at Plk-1 (setting [3]), 7 nM; at Plk-1 (setting [2]), 15 nM; with MOLM-13 cell line, 56 nM.
As to `CC[C@@H]1C(=O)N(C)c2cnc(Nc3ncc(C(=O)NC4CCN(C)CC4)cc3OC)cc2N1C1CCCC1` [Example 14, 6-[[(2R)-1-Cyclopentyl-2-ethyl-1,2,3,4-tetrahydro-4-methyl-3-oxopyrido[3,4-b]pyrazin-7-yl]amino]-5-methoxy-N-(1-methyl-4-piperidinyl)-3-pyridinecarboxamide], the IC50 in test [1] is 458 nM; on Plk-1 (setting [3]), 11 nM; on Plk-1 (setting [2]), 29 nM; in the test with MOLM-13 cell line, 32 nM.
Consider `CC[C@@H]1C(=O)N(C)c2cnc(Nc3ncc(C(=O)N[C@@H]4CCCCNC4=O)cc3C)cc2N1C1CCCC1` [Example 15], for which the half-maximal inhibitory concentration (IC50) is 496 nM in test [1], 13 nM on Plk-1 (setting [3]), 22 nM on Plk-1 (setting [2]) and 77 nM with MOLM-13 cell line.
Take `CC[C@@H]1C(=O)N(C)c2cnc(Nc3ncc(C(=O)N[C@@H]4CCCCNC4=O)cc3OC)cc2N1C1CCCC1` [Example 16, 6-[[(2R)-1-Cyclopentyl-2-ethyl-1,2,3,4-tetrahydro-4-methyl-3-oxopyrido[3,4-b]pyrazin-7-yl]amino]-N-[(3R)-hexahydro-2-oxo-1H-azepin-3-yl]-5-methoxy-3-pyridinecarboxamide]: the IC50 in test [1] is 525 nM; at Plk-1 (setting [2]), 22 nM; in the test on MOLM-13 cell line, 77 nM.
Regarding `CC[C@@H]1C(=O)N(C)c2cnc(Nc3ncc(C(=O)NC4CCOCC4)cc3C)cc2N1C1CCCC1` [Example 17, 6-{[(2R)-1-Cyclopentyl-2-ethyl-4-methyl-3-oxo-1,2,3,4-tetrahydropyrido[3,4-b]pyrazin-7-yl]amino}-5-methyl-N-(tetrahydro-2H-pyran-4-yl)pyridine-3-carboxamide], the IC50 in test [1] was determined as 539 nM; at Plk-1 (setting [3]), 8 nM; at Plk-1 (setting [2]), 14 nM; with MOLM-13 cell line it was 55 nM.
`CC[C@@H]1C(=O)N(C)c2cnc(Nc3ncc(C(=O)NC4CCN(C)CC4)cc3C)cc2N1C1CCCC1` [Example 18, 6-[[(2R)-1-Cyclopentyl-2-ethyl-1,2,3,4-tetrahydro-4-methyl-3-oxopyrido[3,4-b]pyrazin-7-yl]amino]-5-methyl-N-(1-methyl-4-piperidinyl)pyridine-3-carboxamide]: the IC50 in test [1] is 649 nM; on Plk-1 (setting [2]), 7 nM; with MOLM-13 cell line, 42 nM.
For `CC[C@@H]1C(=O)N(C)c2cnc(Nc3ncc(C4=NC(C)(C)CO4)cc3OC)cc2N1C1CCCC1` [Example 19, 1N-Cyclopentyl-7-[[5-(4,5-dihydro-4,4-dimethyl-2-oxazolyl)-3-methoxy-2-pyridinyl]amino]-(2R)-ethyl-4N-methyl-1,4-dihydropyrido[3,4-b]pyrazin-3(2H)-one], in that order: 732 nM, 99 nM and 362 nM.
For `CC[C@@H]1C(=O)N(C)c2cnc(Nc3ncc(C(=O)NC4CCCCC4)cc3OC)cc2N1C1CCCC1` [Example 20, N-Cyclohexyl-6-[[(2R)-1-cyclopentyl-2-ethyl-1,2,3,4-tetrahydro-4-methyl-3-oxopyrido[3,4-b]pyrazin-7-yl]amino]-5-methoxypyridine-3-carboxamide], the IC50 is 878 nM in test [1], 35 nM on Plk-1 (setting [2]) and 101 nM in the test on MOLM-13 cell line.
